We go through 1 molecule from PMC10076643, “Design, synthesis and anticancer activity studies of 3-(coumarin-3-yl)-acrolein derivatives: Evidenced by integrating network pharmacology and vitro assay” (Frontiers in Pharmacology, 2023).

For test [1], the system named is KB cells. The test is described as follows: Scratch wound healing assay. The following applies: different concentrations (0.5 IC50, IC50, 2 IC50), after 24 h. Type of test: cell-based, human. As for the experimental part: Wound healing assay and transwell assay were performed to investigate the effect of compound 6e on the migratory capability of KB cells.
In vitro wound-healing assay, KB cells (5 × 10^5 cells/well) were seeded into 6-well plates and incubated at 37 °C in humidified atmosphere with 5% CO2 for 12 h. As the cells were adherent to the wall and the degree of fusion reached more than 90%, cell layers were gently scratched with a 200 μL pipette tip. […] Images of cells were photographed with the inverted fluorescence microscope (Leica DMi8, Germany) at 0 h and 24 h. The areas that were not covered by cells in the scratch wound were quantified by using ImageJ. Then the values obtained in each group were expressed by the percentage of wound closure of cells in the control group. The experiments were performed in triplicate.

For test [2], the system named is MCF-7 (human breast cancer cell line). The test is described as follows: MTT antiproliferative assay, MCF-7. Type of test: cell-based. The following applies: MCF7, 72 h. The text has this:
(§1) All the synthesized compounds were screened for in vitro antiproliferative activity against four human cancer cell lines A549 (human lung cancer cell line), KB (human oral epidermoid carcinoma cell line), Hela (human cervical carcinoma cell line), MCF-7 (human breast cancer cell line) and two human normal cell lines HUVEC (human umbilical vein endothelial cell) and LO2 (human normal hepatocytes) through the 3-(4,5-dimethyl-2-thiazolyl)-2,5-diphenyl-2-H-tetrazolium bromide (MTT) assay.
(§2) Non-small-cell lung cancer (A549), oral epidermoid carcinoma (KB), cervical cancer (Hela) and breast cancer (MCF-7) cells were purchased from the American Type Culture Collection (ATCC, America). Human umbilical vein endothelial cell (HUVEC) and human normal hepatocytes (LO2) cells were provided by Guangzhou Medical University (Guangzhou, China). A549 and KB cells were cultured in RMPI-1640 medium (Gibco, America). Hela, MCF-7 and LO2 cells were cultured in DMEM medium (Gibco, America). HUVEC cells were cultured in Ham’s F-12K medium (Gibco, America). All the mediums were supplemented with 10% fetal bovine serum (FBS) (BI, State of Israel), 100 U/mL penicillin and 100 μg/mL streptomycin (Gibco, America), and all the cells were incubated in a sterile incubator at 37°C in an environment of 5% CO2. The tested compounds were dissolved in dimethyl sulfoxide (DMSO) at a concentration of 10 mM, and then diluted into different concentration of solutions by culture medium. The final concentration of DMSO was <0.01% (v/v) in all drug treatment groups to avoid the toxicity in the biological system. Untreated cells were used as a blank control and 5-fluorouracil treated cells were used as a positive control.
(§3) The incubated tumor cells were planted into 96-well plates (4×10^3 cells/well). After 24 h, the cells were adherent to the wall and treated with the compound 6e in different concentrations (0.78, 1.56, 3.12, 6.25, 12.50, 25.00, and 50.00 μM) for 72 h. Afterwards, the medium was supplemented with 10 µL MTT solution. After 4 h, the culture medium was removed and 100 µL DMSO was added. The absorbance was determined at the wavelength of 540 nm and 655 nm using a microplate reader (BioTek Epoch, America). The results were collected from three independent experiments. The IC50 was then calculated by using GraphPad Prism Software (version 7.0) and non-linear regression (curve fit).

Test [3] relates to LO2 (human normal hepatocytes). Kind of test: MTT antiproliferative assay, LO2 normal cells. The following applies: Hepatocyte, 72 h. It is filed as cell-based.
From the text: as §1, §2, §3

For test [4], the system named is KB cells. Kind of test: Transwell invasion assay (Matrigel). It is filed as cell-based, human. The following applies: 2 IC50, 48 h. As for the experimental part: Transwell invasion assay was carried out to evaluate the effect of compound 6e on KB cell invasion.
For invasion assay, the transwells (8 μm pore size, Corning Incorporated) were precoated with 40 μL Matrigel for 2 h at 37°C to achieve solidification. KB cells were harvested and resuspended in serum-free medium, treated with different concentrations of compound 6e (0.5 IC50, IC50, 2 IC50), and added into the upper wells of the transwell chamber at density of 1×10^5 cells/200 μL. Then 600 μL of RPMI-1640 containing 10% FBS was added into each lower chamber. After 48 h, the invaded cells in the lower champers were fixed with paraformaldehyde for 1 h and stained with crystal violet solution for 2 h. The non-invading cells in the upper chambers of the transwell plates were scraped away by cotton swabs. Next, the chambers were washed with PBS. The invaded cells were then imaged with the inverted fluorescence microscope (Leica DMi8, Germany) and counted with ImageJ software for three independent fields randomly.

As a reminder, the IC50 is the point on the concentration scale where inhibition reaches its midpoint. Read a low IC50 as higher potency. For `O=CC=C(Cl)c1cc2ccc(OCc3ccccc3)cc2oc1=O` [Compound 6e, 3-(7-(Benzyloxy)-2-oxo-2H-chromen-3-yl)-3-chloroacrylaldehyde], the “scratched gaps of KB cells” value in the test on KB cells [1] is “wider than that of the control group and 5-FU group”. Moreover, the IC50 worked out at 14.8 ± 0.28 µM in test [2] and 50.13 ± 0.03 µM in test [3]. Further, the “KB cell invasion reduced” value in the test with KB cells [4] is “more than 64%”.
